This is an account of results in EP4417202A1, “ANTI-CANCER ACTION OF BAG1-SELECTIVE IMIDAZOPYRIDINE COMPOUNDS IN STEROID HORMONE RECEPTOR-POSITIVE BREAST AND PROSTATE CANCER” (Karlsruher Institut für Technologie, priority 2023, dated 2024).

Molecules are shown by their SMILES.

One experiment relates to 22Rv.1. Kind of experiment: Clonogenic assay (clonal expansion). The class given is cell-based. The conditions noted are these: Prostate Cancer (22Rv.1), AR+, inhibition of clonal expansion. The protocol:
(§1) Cells were seeded at a density of 1-2×10^3 cells/well in a 6 well plate in RPMI 1640 supplemented with 10% FBS, penicillin (100 u/ml), streptomycin (100 u/ml), and L-glutamine (2 mM). Cells were treated with increasing concentrations of X15695 and cultured for 14 to 21 days. Medium and compounds were exchanged after 7 days. Cells were fixed with methanol/ acetic acid mixture (3:1 v/v) and the formation of colonies was visualized using 0.5% crystal violet (w/v) in 20% methanol (v/v). Plates were scanned in a conventional office scanner (Epson). The area covered by colonies was calculated using the ColonyArea Plugin for ImageJ.

A further experiment deals with LNCaP. As to the kind of experiment: Clonogenic assay (clonal expansion). The class given is cell-based. The following applies: Prostate Cancer (LNCaP), AR+, inhibition of clonal expansion. The method, then:
as §1

A further experiment concerns MCF-7. As to the kind of experiment: Clonogenic assay (clonal expansion). The class given is cell-based. The conditions noted are these: Breast Cancer (MCF-7), ER+, inhibition of clonal expansion. The protocol: as §1
Another experiment relates to ZR75-1. As to the kind of experiment: Clonogenic assay (clonal expansion). The class given is cell-based. The following applies: Breast Cancer (ZR75-1), ER+, inhibition of clonal expansion. The method, then:
as §1

The test system of experiment [1] is ER^+ and AR^+ breast and prostate cancer cells. The conditions noted are these: proliferation of ER^+ and AR^+ breast and prostate cancer cells, previously reported; cited from earlier work.
In the next experiment the test system is T47D. As to the kind of experiment: Clonogenic assay (clonal expansion). It is filed as cell-based. The conditions noted are these: Homo sapiens; Breast Cancer (T47D), ER+; inhibition of clonal expansion. The method, then:
as §1

A further experiment has as its system DU145. As to the kind of experiment: Clonogenic assay (clonal expansion). The class given is cell-based. The following applies: Homo sapiens, DU-145; Prostate Cancer (DU145), AR-; inhibition of clonal expansion. The protocol:
as §1

For a further experiment, the system named is PC3. Kind of experiment: Clonogenic assay (clonal expansion). The class given is cell-based. The conditions noted are these: Homo sapiens; Prostate Cancer (PC3), AR-; inhibition of clonal expansion. The protocol: as §1
Another experiment has as its system ERα. The conditions noted are these: MCF-7 cells. The protocol:
For Western blotting, cells were lysed in NP-40 lysis buffer (1% NP-40, 50 mM Tris-HCl, pH 8.0, 150 mM NaCl, 5 mM EDTA) or 1× passive lysis buffer (Promega, Germany) for 15 min on ice. Cell debris was removed by centrifugation at 13,000 rpm for 10 min and used for SDS-polyacrylamide gel electrophoresis (PAGE) and Western blotting.
Western Blotting was carried out using standard protocols with antibodies: p53 (clone DO1), p53 (Sp5, Thermo Fisher Scientific Karlsruhe, Germany), Mdm2 (4B2, Abcam, Cambridge, UK). […] Secondary goat anti-mouse and goat anti-rabbit antibodies were purchased from DAKO (Bollschweil, Germany).

Experiment [2] deals with TRMCF-7 cells (tamoxifen resistant MCF-7 cells). Kind of experiment: MTT cell viability assay. The following applies: 48 h. It is filed as cell-based. The method, then: […] Cells transfected with siRNA were incubated for 72 h after X15695 addition. Thereafter, the medium was exchanged for a fresh medium containing 0.5 mg/ml MTT (Sigma-Aldrich) and incubated at 37°C for 1 h to 4 h (depending on cell line) until intracellular purple formazan crystals were formed. The MTT solution was removed, and the purple crystals were dissolved in isopropanol and the optical absorbance at 595 nm was recorded using SpectraMax iD3, Molecular Devices, San Jose, CA, USA.
On the technique in general: Formazan colour is commonly taken as a measure of viable cells.

In a further experiment the test system is TRMCF-7 cells. As to the kind of experiment: Clonogenic assay (clonal expansion). The class given is cell-based. The protocol:
as §1

Usually IC50 stands for the point on the concentration scale where inhibition reaches its midpoint. In the case of `Fc1ccc(-c2nc3cc(C(F)(F)F)ccc3s2)cc1` [Compound A4B17, reference compound], the IC50 is 3400 nM in the experiment on 22Rv.1, 1600 nM with LNCaP, 1280 nM with MCF-7 and 110 nM in the experiment with ZR75-1. For the same compound, the IC50 values result in experiment [1] was “in the micromolar range”.
In the case of `Fc1ccc(-c2cn3cc(Br)ccc3n2)cc1` [Compound X19168, 6-bromo-2-(4-fluorophenyl)imidazo[1,2-a]pyridine], the concentration for half-maximal inhibition (IC50) is 641 ± 246 nM in the experiment with 22Rv.1 (Homo sapiens, 22Rv1) and 12 nM in the experiment with MCF-7 (Homo sapiens, MCF7).
As for `Fc1ccccc1-c1cn2cc(C(F)(F)F)cc(Cl)c2n1` [Compound X19720, 8-Chloro-2-(2-fluorophenyl)-6-(trifluoromethyl)imidazo[1,2-a]pyridine], the IC50 in the experiment on 22Rv.1 (Homo sapiens, 22Rv1) is 4.4 ± 1.6 nM; in the experiment with LNCaP (Homo sapiens) it was below 0.1 nM; in the experiment with MCF-7 (Homo sapiens, MCF7), 14.5 nM.
With `Cc1cc(Cl)c2nc(-c3ccc(F)cc3)cn2c1` [Compound X19724, 8-Chloro-2-(4-fluorophenyl)-6-methylimidazo[1,2-a]pyridine], the concentration for half-maximal inhibition (IC50) in the experiment on 22Rv.1 (Homo sapiens, 22Rv1) turned out to be 4.4 nM; in the experiment on LNCaP (Homo sapiens) it was 0.2 nM; with MCF-7 (Homo sapiens, MCF7) it was 3.3 ± 0.9 nM; in the experiment with T47D it was 86.1 ± 49.1 nM; with ZR75-1 (Homo sapiens, ZR-75-1), 16.2 ± 4.7 nM.
For `Cc1cc(Cl)c2nc(-c3ccccc3)cn2c1` [Compound X19728, 8-Chloro-6-methyl-2-phenylimidazo[1,2-a]pyridine], the IC50 with 22Rv.1 (Homo sapiens, 22Rv1) was 48.5 ± 13.3 nM; in the experiment on MCF-7 (Homo sapiens, MCF7), 6 ± 2.8 nM; in the experiment with ZR75-1 (Homo sapiens, ZR-75-1) it was 39.2 ± 24.3 nM.
Take `Fc1ccc(-c2cn3cc(C(F)(F)F)ccc3n2)cc1` [Compound X20046, 2-(4-Fluorophenyl)-6-(trifluoromethyl)imidazo[1,2-a]pyridine]: the IC50 in the experiment with 22Rv.1 (Homo sapiens, 22Rv1) was 7.5 ± 3.2 nM; in the experiment with LNCaP (Homo sapiens), 0.1 nM; in the experiment with MCF-7 (Homo sapiens, MCF7), 10 ± 4.3 nM; in the experiment on T47D it was 57.1 nM; in the experiment with ZR75-1 (Homo sapiens, ZR-75-1), 31.8 nM.
As to `FC(F)(F)c1cc(Cl)c2nc(-c3ccccc3)cn2c1` [X19166/ X15696, 8-Chloro-2-phenyl-6-(trifluoromethyl)imidazo[1,2-a]pyridine], the IC50 is 22.5 ± 6.6 nM with 22Rv.1 (Homo sapiens, 22Rv1); 3580 nM in the experiment with DU145; below 0.1 nM in the experiment with LNCaP (Homo sapiens); 7.9 ± 1.9 nM in the experiment with MCF-7 (Homo sapiens, MCF7); 11900 nM in the experiment on PC3; 44.7 ± 11.4 nM in the experiment with T47D. In the experiment with ZR75-1 (Homo sapiens, ZR-75-1), this compound yielded an IC50 of 10.2 ± 2.7 nM.
As for `C[C@]12CC[C@@H]3c4ccc(O)cc4C[C@@H](CCCCCCCCC[S+]([O-])CCCC(F)(F)C(F)(F)F)[C@H]3[C@@H]1CC[C@@H]2O` (stereo partly drawn) [fulvestrant, reference compound], the “ERα downregulation over time” value in the experiment on ERα (1 µM, time course) is “rapidly downregulated ERα level within 4 h to 8 h recovering gradually thereafter”. Moreover, the “concentration sufficient to downregulate ERα” value in the experiment with ERα (8 h) is on record as at most 1 nM. Further, the inhibition of viability result in experiment [2] is “comparable activities”. For the same compound, the “inhibition of clonal expansion” value in the experiment on TRMCF-7 cells is listed as “slightly more efficacious than X15695”.
For the compound `CC/C(=C(\c1ccccc1)c1ccc(OCCN(C)C)cc1)c1ccccc1` [tamoxifen], the inhibition of viability result in experiment [2] is recorded as “ineffective”. Further, in the experiment on TRMCF-7 cells, the “inhibition of clonal expansion” value is “inactive”.
